Measured values taken from the NIST ThermoML archive (doi:10.1021/je800894y).
Numbers after ± are expanded uncertainties.

Test: xn = mol fraction of the nth substance listed
Settings: Liquid; for viscosity: Vibrating wire viscometry; for mass density: vibrating-wire apparatus
[1] = 303.15 K, 10060 kPa, x2 = 0.4233
[2] = 303.15 K, 10070 kPa, x2 = 0.4233
[3] = 303.15 K, 30380 kPa, x2 = 0.4233
[4] = 303.15 K, 50510 kPa, x2 = 0.4233
[5] = 303.15 K, 70400 kPa, x2 = 0.4233
[6] = 303.15 K, 90250 kPa, x2 = 0.4233
[7] = 303.15 K, 110380 kPa, x2 = 0.4233
[8] = 303.15 K, 130280 kPa, x2 = 0.4233
[9] = 303.15 K, 150080 kPa, x2 = 0.4233
[10] = 303.15 K, 170210 kPa, x2 = 0.4233
[11] = 303.17 K, 30190 kPa, x2 = 0.7882
[12] = 303.17 K, 30740 kPa, x2 = 0.7882
[13] = 303.17 K, 50100 kPa, x2 = 0.7882
[14] = 303.17 K, 70730 kPa, x2 = 0.7882
[15] = 303.17 K, 90490 kPa, x2 = 0.7882
[16] = 303.17 K, 110640 kPa, x2 = 0.7882
[17] = 303.17 K, 130570 kPa, x2 = 0.7882
[18] = 303.17 K, 151340 kPa, x2 = 0.7882
[19] = 303.17 K, 170570 kPa, x2 = 0.7882
[20] = 303.18 K, 10600 kPa, x2 = 0.6039
[21] = 303.18 K, 30810 kPa, x2 = 0.6039
[22] = 303.18 K, 50820 kPa, x2 = 0.6039
[23] = 303.18 K, 70800 kPa, x2 = 0.6039
[24] = 303.18 K, 91100 kPa, x2 = 0.6039
[25] = 303.18 K, 100670 kPa, x2 = 0.6039
[26] = 303.18 K, 111110 kPa, x2 = 0.6039
[27] = 303.18 K, 130850 kPa, x2 = 0.6039
[28] = 303.18 K, 150500 kPa, x2 = 0.6039
[29] = 303.18 K, 170440 kPa, x2 = 0.6039
[30] = 348.11 K, 10450 kPa, x2 = 0.6039
[31] = 348.11 K, 10480 kPa, x2 = 0.6039
[32] = 348.11 K, 30310 kPa, x2 = 0.6039
[33] = 348.11 K, 50270 kPa, x2 = 0.6039
[34] = 348.11 K, 70180 kPa, x2 = 0.6039
[35] = 348.11 K, 90320 kPa, x2 = 0.6039
[36] = 348.11 K, 110880 kPa, x2 = 0.6039
[37] = 348.11 K, 130860 kPa, x2 = 0.6039
[38] = 348.11 K, 150870 kPa, x2 = 0.6039
[39] = 348.11 K, 170910 kPa, x2 = 0.6039
[40] = 348.25 K, 10070 kPa, x2 = 0.4233
[41] = 348.25 K, 10100 kPa, x2 = 0.4233
[42] = 348.25 K, 30390 kPa, x2 = 0.7882
[43] = 348.25 K, 30440 kPa, x2 = 0.4233
[44] = 348.25 K, 30610 kPa, x2 = 0.7882
[45] = 348.25 K, 50540 kPa, x2 = 0.7882
[46] = 348.25 K, 50590 kPa, x2 = 0.4233
[47] = 348.25 K, 70530 kPa, x2 = 0.4233
[48] = 348.25 K, 70650 kPa, x2 = 0.7882
[49] = 348.25 K, 90610 kPa, x2 = 0.4233
[50] = 348.25 K, 90680 kPa, x2 = 0.7882
[51] = 348.25 K, 110350 kPa, x2 = 0.7882
[52] = 348.25 K, 110610 kPa, x2 = 0.4233
[53] = 348.25 K, 130400 kPa, x2 = 0.4233
[54] = 348.25 K, 130530 kPa, x2 = 0.7882
[55] = 348.25 K, 150600 kPa, x2 = 0.7882
[56] = 348.25 K, 150670 kPa, x2 = 0.4233
[57] = 348.25 K, 169670 kPa, x2 = 0.4233
[58] = 348.25 K, 170310 kPa, x2 = 0.7882

A viscosity [1] of 9.12 ± 0.19 mPa·s, a mass density [1] of 814.8 ± 1.6 kg/m3 and a viscosity [2] of 9.17 ± 0.19 mPa·s were found for CC(C)CCCC(C)CCCC(C)CCCCC(C)CCCC(C)CCCC(C)C (stereo unspecified) [2,6,10,15,19,23-hexamethyltetracosane] + O=C=O in this work. The mass density [2] was 815.3 ± 1.6 kg/m3, the viscosity [3] was 12.7 ± 0.3 mPa·s and the mass density [3] was 828 ± 1.7 kg/m3. It also gave a viscosity [4] of 17.3 ± 0.4 mPa·s, a mass density [4] of 839.2 ± 1.7 kg/m3 and a viscosity [5] of 23 ± 0.5 mPa·s. For the same molecule, the mass density [5] was 849.3 ± 1.7 kg/m3, the viscosity [6] was 30.5 ± 0.6 mPa·s and the mass density [6] was 856.5 ± 1.7 kg/m3. The viscosity [7] was 40.1 ± 0.8 mPa·s, the mass density [7] was 862.1 ± 1.7 kg/m3 and the viscosity [8] was 52.3 ± 1.1 mPa·s. For the same molecule, the mass density [8] was 867.8 ± 1.7 kg/m3, the viscosity [9] was 67.8 ± 1.4 mPa·s and the mass density [9] was 869.4 ± 1.7 kg/m3. It also gave a viscosity [10] of 85.9 ± 1.9 mPa·s, a mass density [10] of 882.8 ± 1.8 kg/m3 and a viscosity [11] of 2.36 ± 0.05 mPa·s. The mass density [11] was 854.3 ± 1.7 kg/m3, the viscosity [12] was 2.24 ± 0.05 mPa·s and the mass density [12] was 847.4 ± 1.7 kg/m3. The viscosity [13] was 2.79 ± 0.06 mPa·s, the mass density [13] was 863.4 ± 1.7 kg/m3 and the viscosity [14] was 3.43 ± 0.07 mPa·s. For the same molecule, the mass density [14] was 877.8 ± 1.8 kg/m3, the viscosity [15] was 4.15 ± 0.09 mPa·s and the mass density [15] was 890 ± 1.8 kg/m3. For the same molecule, the viscosity [16] was 4.95 ± 0.1 mPa·s, the mass density [16] was 901.1 ± 1.8 kg/m3 and the viscosity [17] was 5.91 ± 0.12 mPa·s. It also gave a mass density [17] of 911 ± 1.8 kg/m3, a viscosity [18] of 6.94 ± 0.14 mPa·s and a mass density [18] of 922.8 ± 1.8 kg/m3. For the same molecule, the viscosity [19] was 8.13 ± 0.17 mPa·s, the mass density [19] was 934.8 ± 1.9 kg/m3 and the viscosity [20] was 4.92 ± 0.1 mPa·s. The mass density [20] was 823.9 ± 1.6 kg/m3, the viscosity [21] was 6.58 ± 0.14 mPa·s and the mass density [21] was 838.1 ± 1.7 kg/m3. It also gave a viscosity [22] of 8.58 ± 0.18 mPa·s, a mass density [22] of 850.4 ± 1.7 kg/m3 and a viscosity [23] of 11 ± 0.2 mPa·s. For the same molecule, the mass density [23] was 861 ± 1.7 kg/m3, the viscosity [24] was 14 ± 0.3 mPa·s and the mass density [24] was 871.1 ± 1.7 kg/m3. The viscosity [25] was 15.6 ± 0.3 mPa·s, the mass density [25] was 874.8 ± 1.8 kg/m3 and the viscosity [26] was 17.5 ± 0.4 mPa·s. It also gave a mass density [26] of 879.9 ± 1.8 kg/m3, a viscosity [27] of 21.7 ± 0.4 mPa·s and a mass density [27] of 888.1 ± 1.8 kg/m3. The viscosity [28] was 26.5 ± 0.5 mPa·s, the mass density [28] was 897.9 ± 1.8 kg/m3 and the viscosity [29] was 32 ± 0.7 mPa·s. The mass density [29] was 910.5 ± 1.8 kg/m3, the viscosity [30] was 1.92 ± 0.04 mPa·s and the mass density [30] was 787.7 ± 1.6 kg/m3. It also gave a viscosity [31] of 1.92 ± 0.04 mPa·s, a mass density [31] of 788.1 ± 1.6 kg/m3 and a viscosity [32] of 2.49 ± 0.05 mPa·s. The mass density [32] was 806 ± 1.6 kg/m3, the viscosity [33] was 3.13 ± 0.06 mPa·s and the mass density [33] was 820.7 ± 1.6 kg/m3. For the same molecule, the viscosity [34] was 3.85 ± 0.08 mPa·s, the mass density [34] was 833.3 ± 1.7 kg/m3 and the viscosity [35] was 4.68 ± 0.1 mPa·s. For the same molecule, the mass density [35] was 844.4 ± 1.7 kg/m3, the viscosity [36] was 5.64 ± 0.12 mPa·s and the mass density [36] was 854.6 ± 1.7 kg/m3. It also gave a viscosity [37] of 6.7 ± 0.14 mPa·s, a mass density [37] of 863.7 ± 1.7 kg/m3 and a viscosity [38] of 7.9 ± 0.16 mPa·s. It also gave a mass density [38] of 872.1 ± 1.7 kg/m3, a viscosity [39] of 9.28 ± 0.19 mPa·s and a mass density [39] of 879.8 ± 1.8 kg/m3. The viscosity [40] was 2.99 ± 0.06 mPa·s, the mass density [40] was 783.6 ± 1.6 kg/m3 and the viscosity [41] was 2.98 ± 0.06 mPa·s. For the same molecule, the mass density [41] was 783.4 ± 1.6 kg/m3, the viscosity [42] was 1.08 ± 0.04 mPa·s and the mass density [42] was 806 ± 1.6 kg/m3. It also gave a viscosity [43] of 3.95 ± 0.08 mPa·s, a mass density [43] of 799.2 ± 1.6 kg/m3 and a viscosity [44] of 1.07 ± 0.03 mPa·s. The mass density [44] was 806.9 ± 1.6 kg/m3, the viscosity [45] was 1.34 ± 0.03 mPa·s and the mass density [45] was 827 ± 1.7 kg/m3. It also gave a viscosity [46] of 5.1 ± 0.11 mPa·s, a mass density [46] of 812.2 ± 1.6 kg/m3 and a viscosity [47] of 6.42 ± 0.13 mPa·s. For the same molecule, the mass density [47] was 823.5 ± 1.6 kg/m3, the viscosity [48] was 1.61 ± 0.03 mPa·s and the mass density [48] was 844 ± 1.7 kg/m3. For the same molecule, the viscosity [49] was 7.98 ± 0.16 mPa·s, the mass density [49] was 833.7 ± 1.7 kg/m3 and the viscosity [50] was 1.91 ± 0.04 mPa·s. For the same molecule, the mass density [50] was 858.4 ± 1.7 kg/m3, the viscosity [51] was 2.22 ± 0.05 mPa·s and the mass density [51] was 870.8 ± 1.7 kg/m3. It also gave a viscosity [52] of 9.83 ± 0.2 mPa·s, a mass density [52] of 842.8 ± 1.7 kg/m3 and a viscosity [53] of 11.9 ± 0.3 mPa·s. It also gave a mass density [53] of 851.3 ± 1.7 kg/m3, a viscosity [54] of 2.57 ± 0.05 mPa·s and a mass density [54] of 882.3 ± 1.8 kg/m3. It also gave a viscosity [55] of 2.94 ± 0.06 mPa·s, a mass density [55] of 892.7 ± 1.8 kg/m3 and a viscosity [56] of 14.5 ± 0.3 mPa·s. The mass density [56] was 859.3 ± 1.7 kg/m3, the viscosity [57] was 17.3 ± 0.4 mPa·s and the mass density [57] was 866.3 ± 1.7 kg/m3. For the same molecule, the viscosity [58] was 3.34 ± 0.07 mPa·s and the mass density [58] was 902 ± 1.8 kg/m3.
